Laboratory results from the supplement of paper PMC12463676, “Small-molecule dissolution of stress granules by redox modulation benefits ALS models” (Nature Chemical Biology, 2025).

Legend:
[1] = compound: NC(=O)CCCCC1CCSS1 [lipoamide]; assay: thermal stability z-score vs DMSO; higher = more thermally stabilized by treatment; conditions: HeLa, lipoamide concentration 100 µM
Description: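 Cellular thermal proteome profiling in HeLa cells. Cells were treated with 100 µM lipoamide for 1 h, with or without 1 mM arsenate for a further 1 h, then heated to ten temperatures (37-66.3 °C), and soluble protein was quantified by TMT mass spectrometry relative to 0.1% DMSO controls. The thermal stability score (sum of log2 fold changes minus the abundance score) was transformed to a z-score; mean of n = 3 experiments.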

[2] = compound: O=[As]([O-])(O)O.[K+] [potassium arsenate]; assay: as above; conditions: HeLa; arsenate concentration 1 mM
Description: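 Cellular thermal proteome profiling in HeLa cells treated with 1 mM arsenate for 1 h (DMSO pretreatment), heated to ten temperatures (37-66.3 °C). Soluble protein was quantified by TMT mass spectrometry relative to DMSO controls; the thermal stability score was transformed to a z-score; mean of n = 3 experiments.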

[3] = arsenate co-treatment: 1 mM arsenate 1 h
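Further: each temperature applied for 3 min, abundance score taken as mean log2 fold change at the two lowest temperatures, z-score obtained by mean subtraction and division by SD.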

Sequence of UniProt P24385 (P24385 whole entry): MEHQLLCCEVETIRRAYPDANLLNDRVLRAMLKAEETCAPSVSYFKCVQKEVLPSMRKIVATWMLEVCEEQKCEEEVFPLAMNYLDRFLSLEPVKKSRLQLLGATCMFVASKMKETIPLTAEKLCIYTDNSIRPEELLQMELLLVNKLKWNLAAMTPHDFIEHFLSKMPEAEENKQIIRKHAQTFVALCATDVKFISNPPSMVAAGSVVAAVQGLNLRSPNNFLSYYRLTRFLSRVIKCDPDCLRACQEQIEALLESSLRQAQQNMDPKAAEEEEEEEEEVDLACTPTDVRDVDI
Sequence of UniProt Q9HB19 (Q9HB19 whole entry): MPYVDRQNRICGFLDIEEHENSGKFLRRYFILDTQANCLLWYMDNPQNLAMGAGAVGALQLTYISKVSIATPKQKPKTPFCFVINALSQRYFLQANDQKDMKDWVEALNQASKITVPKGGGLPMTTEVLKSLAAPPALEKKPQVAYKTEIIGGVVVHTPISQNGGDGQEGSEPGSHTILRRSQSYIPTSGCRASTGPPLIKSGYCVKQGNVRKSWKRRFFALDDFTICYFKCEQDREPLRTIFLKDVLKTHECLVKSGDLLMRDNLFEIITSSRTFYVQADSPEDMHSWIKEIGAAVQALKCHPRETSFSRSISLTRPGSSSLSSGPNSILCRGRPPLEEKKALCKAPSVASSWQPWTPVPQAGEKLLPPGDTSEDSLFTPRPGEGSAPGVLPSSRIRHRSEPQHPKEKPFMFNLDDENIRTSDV
Sequence of UniProt Q8IY22 (Q8IY22 whole entry): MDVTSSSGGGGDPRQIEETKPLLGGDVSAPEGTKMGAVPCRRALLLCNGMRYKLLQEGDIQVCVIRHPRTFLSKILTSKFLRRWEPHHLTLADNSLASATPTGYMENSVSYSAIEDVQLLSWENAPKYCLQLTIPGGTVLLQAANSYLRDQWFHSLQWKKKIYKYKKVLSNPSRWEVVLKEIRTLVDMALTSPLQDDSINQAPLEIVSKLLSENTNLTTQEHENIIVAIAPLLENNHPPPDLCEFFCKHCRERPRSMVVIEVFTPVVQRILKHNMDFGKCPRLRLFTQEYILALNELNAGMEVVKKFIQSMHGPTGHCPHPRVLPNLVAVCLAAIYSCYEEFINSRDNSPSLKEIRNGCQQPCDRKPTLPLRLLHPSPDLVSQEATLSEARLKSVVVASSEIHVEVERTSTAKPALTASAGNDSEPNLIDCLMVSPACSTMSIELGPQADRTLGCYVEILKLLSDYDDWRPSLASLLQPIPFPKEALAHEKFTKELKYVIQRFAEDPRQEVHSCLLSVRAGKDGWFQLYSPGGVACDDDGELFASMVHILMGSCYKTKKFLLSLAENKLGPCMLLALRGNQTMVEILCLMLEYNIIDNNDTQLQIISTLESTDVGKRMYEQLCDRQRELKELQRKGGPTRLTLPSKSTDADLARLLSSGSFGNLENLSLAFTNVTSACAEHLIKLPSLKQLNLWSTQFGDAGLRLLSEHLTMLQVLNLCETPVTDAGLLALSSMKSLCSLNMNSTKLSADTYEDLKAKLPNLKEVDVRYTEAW
Sequence of UniProt P38117 (P38117 whole entry): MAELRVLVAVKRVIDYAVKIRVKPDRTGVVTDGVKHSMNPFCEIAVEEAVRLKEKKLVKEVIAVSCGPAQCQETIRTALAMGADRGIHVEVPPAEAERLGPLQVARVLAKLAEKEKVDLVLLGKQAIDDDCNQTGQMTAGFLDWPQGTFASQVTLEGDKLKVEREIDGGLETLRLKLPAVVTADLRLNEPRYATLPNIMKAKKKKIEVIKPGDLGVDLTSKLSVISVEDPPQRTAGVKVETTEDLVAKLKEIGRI
Sequence of UniProt P50616 (P50616 whole entry): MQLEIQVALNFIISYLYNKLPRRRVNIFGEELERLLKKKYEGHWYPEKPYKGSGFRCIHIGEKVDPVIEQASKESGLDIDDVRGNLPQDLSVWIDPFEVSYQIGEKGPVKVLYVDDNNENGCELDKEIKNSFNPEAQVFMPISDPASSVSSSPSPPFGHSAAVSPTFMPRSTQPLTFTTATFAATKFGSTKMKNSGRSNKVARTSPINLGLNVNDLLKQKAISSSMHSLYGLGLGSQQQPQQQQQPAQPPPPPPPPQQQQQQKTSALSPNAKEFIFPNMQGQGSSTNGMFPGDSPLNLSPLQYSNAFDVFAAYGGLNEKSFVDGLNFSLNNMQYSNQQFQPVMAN
Sequence of UniProt Q16851 (Q16851 whole entry): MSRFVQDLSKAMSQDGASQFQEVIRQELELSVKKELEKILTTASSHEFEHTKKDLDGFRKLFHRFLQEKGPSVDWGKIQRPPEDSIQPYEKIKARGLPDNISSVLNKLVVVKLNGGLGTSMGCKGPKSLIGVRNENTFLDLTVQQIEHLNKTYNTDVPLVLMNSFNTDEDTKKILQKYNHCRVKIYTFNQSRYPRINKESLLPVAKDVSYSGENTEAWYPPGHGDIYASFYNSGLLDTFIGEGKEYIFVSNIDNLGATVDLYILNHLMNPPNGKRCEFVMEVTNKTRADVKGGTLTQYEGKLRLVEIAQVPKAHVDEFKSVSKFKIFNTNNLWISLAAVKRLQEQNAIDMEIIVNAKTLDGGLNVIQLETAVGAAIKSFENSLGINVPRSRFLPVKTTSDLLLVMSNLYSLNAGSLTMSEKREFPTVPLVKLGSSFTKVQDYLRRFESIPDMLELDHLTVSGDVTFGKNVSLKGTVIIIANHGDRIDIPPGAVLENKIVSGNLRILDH
Sequence of UniProt O60610 (O60610 whole entry): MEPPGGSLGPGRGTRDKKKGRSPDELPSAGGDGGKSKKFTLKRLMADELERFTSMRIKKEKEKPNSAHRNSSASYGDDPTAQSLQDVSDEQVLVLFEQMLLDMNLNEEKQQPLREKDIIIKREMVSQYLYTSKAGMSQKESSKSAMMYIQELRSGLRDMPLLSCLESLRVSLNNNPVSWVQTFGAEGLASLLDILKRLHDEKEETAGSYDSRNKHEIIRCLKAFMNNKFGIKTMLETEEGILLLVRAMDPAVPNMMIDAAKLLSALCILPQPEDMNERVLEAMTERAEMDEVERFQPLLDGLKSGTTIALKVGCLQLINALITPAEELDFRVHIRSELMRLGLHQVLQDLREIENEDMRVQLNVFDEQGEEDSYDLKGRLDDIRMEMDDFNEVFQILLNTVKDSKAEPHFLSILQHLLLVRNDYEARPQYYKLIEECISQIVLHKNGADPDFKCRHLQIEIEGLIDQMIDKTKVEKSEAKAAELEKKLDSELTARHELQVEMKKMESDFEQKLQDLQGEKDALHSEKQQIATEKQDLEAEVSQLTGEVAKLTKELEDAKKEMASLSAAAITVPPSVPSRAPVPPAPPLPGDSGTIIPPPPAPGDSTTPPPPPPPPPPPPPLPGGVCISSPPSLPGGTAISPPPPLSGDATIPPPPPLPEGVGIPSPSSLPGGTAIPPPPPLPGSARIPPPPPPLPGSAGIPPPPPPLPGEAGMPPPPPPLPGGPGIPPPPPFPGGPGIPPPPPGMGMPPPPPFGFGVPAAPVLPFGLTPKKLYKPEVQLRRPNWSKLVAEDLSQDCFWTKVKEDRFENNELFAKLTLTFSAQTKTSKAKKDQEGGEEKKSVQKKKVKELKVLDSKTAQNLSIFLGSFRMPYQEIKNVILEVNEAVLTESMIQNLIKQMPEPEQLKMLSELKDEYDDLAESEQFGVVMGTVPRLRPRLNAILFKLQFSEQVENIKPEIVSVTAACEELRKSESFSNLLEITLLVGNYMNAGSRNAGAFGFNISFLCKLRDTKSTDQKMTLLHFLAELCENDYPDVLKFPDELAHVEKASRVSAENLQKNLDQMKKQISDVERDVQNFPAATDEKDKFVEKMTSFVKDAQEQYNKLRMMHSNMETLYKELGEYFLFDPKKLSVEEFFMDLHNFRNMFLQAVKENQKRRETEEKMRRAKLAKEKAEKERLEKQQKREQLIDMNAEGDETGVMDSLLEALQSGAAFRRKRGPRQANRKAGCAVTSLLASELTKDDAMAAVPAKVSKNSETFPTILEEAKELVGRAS
Sequence of UniProt Q9Y2Y1 (Q9Y2Y1 whole entry): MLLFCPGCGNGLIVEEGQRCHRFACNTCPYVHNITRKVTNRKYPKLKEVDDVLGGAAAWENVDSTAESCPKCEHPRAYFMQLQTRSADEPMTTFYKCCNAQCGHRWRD
Sequence of UniProt Q96AQ6 (Q96AQ6 whole entry): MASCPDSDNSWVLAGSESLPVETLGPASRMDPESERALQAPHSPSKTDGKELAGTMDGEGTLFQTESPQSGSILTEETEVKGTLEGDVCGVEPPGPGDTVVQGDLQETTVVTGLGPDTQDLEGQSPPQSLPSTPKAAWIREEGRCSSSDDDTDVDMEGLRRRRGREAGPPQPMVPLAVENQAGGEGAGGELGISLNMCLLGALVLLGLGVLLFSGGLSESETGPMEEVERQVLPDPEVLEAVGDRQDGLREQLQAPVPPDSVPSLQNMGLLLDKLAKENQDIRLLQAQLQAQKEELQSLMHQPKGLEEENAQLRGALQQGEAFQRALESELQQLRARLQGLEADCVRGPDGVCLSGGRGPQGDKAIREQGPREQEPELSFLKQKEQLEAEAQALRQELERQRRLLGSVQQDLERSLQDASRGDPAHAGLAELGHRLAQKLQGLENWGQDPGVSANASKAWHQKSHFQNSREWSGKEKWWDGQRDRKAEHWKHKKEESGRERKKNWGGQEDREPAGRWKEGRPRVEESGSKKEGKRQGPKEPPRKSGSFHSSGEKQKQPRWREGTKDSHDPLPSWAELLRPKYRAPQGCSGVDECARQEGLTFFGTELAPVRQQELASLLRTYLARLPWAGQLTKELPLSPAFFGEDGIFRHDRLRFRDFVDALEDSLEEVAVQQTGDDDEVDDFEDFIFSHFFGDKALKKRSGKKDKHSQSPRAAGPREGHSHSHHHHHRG
Sequence of UniProt Q9NP50 (Q9NP50 whole entry): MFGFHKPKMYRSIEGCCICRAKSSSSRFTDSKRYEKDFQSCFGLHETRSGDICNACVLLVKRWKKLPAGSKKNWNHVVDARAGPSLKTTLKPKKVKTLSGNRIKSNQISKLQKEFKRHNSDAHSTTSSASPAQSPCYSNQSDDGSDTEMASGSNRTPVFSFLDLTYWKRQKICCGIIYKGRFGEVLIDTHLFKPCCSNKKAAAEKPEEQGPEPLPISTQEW

Target	thermal stability z-score [1, 3]	thermal stability z-score ([1]; arsenate co-treatment: none)	thermal stability z-score [2]
MXRA7 (UniProt P84157)	0.254	0.307	-0.34
ELP2 (UniProt Q6IA86)	0.0198	-0.186	-0.24
RCN2 (UniProt Q14257)	-3.71	-2.81	0.788
POLE4 (UniProt Q9NR33)	0.919	0.928	-1.07
TOP3A (UniProt Q13472)	-0.152	0.21	-0.457
RSRC1 (UniProt Q96IZ7)	1.06	0.987	1.14
PBXIP1 (UniProt Q96AQ6)	-3.02	-2.69	-0.357
YOD1 (UniProt Q5VVQ6)	-0.00898	-0.121	0.0186
ACTR10 (UniProt Q9NZ32)	-0.106	0.0788	-0.312
CNN2 (UniProt Q99439)	0.281	0.653	0.356
RNF213 (UniProt Q63HN8)	-0.473	-0.111	-0.0363
WDR45B (UniProt Q5MNZ6)	0.848	0.63	0.162
WDR47 (UniProt O94967)	0.51	0.317	-0.0616
RIOK2 (UniProt Q9BVS4)	-0.0928	-0.423	-0.171
CEP85 (UniProt Q6P2H3)	-0.00805	0.112	-0.118
MAP1S (UniProt Q66K74)	-0.223	-0.342	-0.318
DPP9 (UniProt Q86TI2)	-0.0984	-0.0569	0.0941
GTF3C4 (UniProt Q9UKN8)	0.237	0.0733	-1.21
FAM60A (UniProt Q9NP50)	0.0806	0.262	-0.681
COA1 (UniProt Q9GZY4)	0.229	0.587	0.234
CANX (UniProt P27824)	-3.78	-3.12	0.851
GABARAP (UniProt O95166)	-0.21	-0.417	-0.223
PHKA1 (UniProt P46020)	-0.125	-0.051	0.0887
RMDN1 (UniProt Q96DB5)	0.0143	-0.0301	0.171
RIOK3 (UniProt O14730)	-0.0448	-0.0085	0.507
ETFB (UniProt P38117)	-0.321	0.54	-1.2
RCN3 (UniProt Q96D15)	-0.715	-0.986	-0.0957
UGP2 (UniProt Q16851)	0.388	-0.0879	0.872

Target	thermal stability z-score [1, 3]	thermal stability z-score ([1]; arsenate co-treatment: none)	thermal stability z-score [2]
RAB5C (UniProt P51148)	0.345	0.119	0.552
ANKFY1 (UniProt Q9P2R3)	0.069	0.106	0.477
TMEM199 (UniProt Q8N511)	-0.91	-1.15	0.171
LETMD1 (UniProt Q6P1Q0)	0.197	-0.0626	0.0642
ATPAF1 (UniProt Q5TC12)	-0.471	-0.084	-0.64
DDX3X (UniProt O00571)	-0.829	-0.504	-2.07
NPC1 (UniProt O15118)	-0.389	-0.182	0.0121
GRB2 (UniProt P62993)	0.496	0.364	0.0852
CCND1 (UniProt P24385)	-0.0213	-0.202	0.0378
HLCS (UniProt P50747)	-1.26	-0.885	-0.0791
DIAPH1 (UniProt O60610)	0.466	0.801	-0.58
XPO5 (UniProt Q9HAV4)	-0.576	-0.108	-0.103
USP19 (UniProt O94966)	0.774	-0.193	-0.0515
PLEKHA2 (UniProt Q9HB19)	-0.216	-0.168	-0.321
ARFGAP2 (UniProt Q8N6H7)	-0.346	-0.143	0.0541
GATB (UniProt O75879)	0.0276	0.115	0.0266
CMIP (UniProt Q8IY22)	-0.151	-0.146	-0.236
ACADS (UniProt P16219)	0.116	-1.16	-2.93
STAM2 (UniProt O75886)	0.291	-0.113	0.249
TOB1 (UniProt P50616)	-1.37	-0.305	0.159
AKR1B1 (UniProt P15121)	0.596	0.698	1.19
C16ORF58 (UniProt Q96GQ5)	-0.446	-0.183	-0.192
AGPAT2 (UniProt O15120)	-0.401	0.198	0.392
LAMA3 (UniProt Q16787)	0.341	-0.204	0.34
POLR3K (UniProt Q9Y2Y1)	0.542	0.567	-3.08
SELK (UniProt Q9Y6D0)	0.406	-0.759	0.22
RPL15 (UniProt P61313)	0.537	0.113	-0.589
